Laboratory results published in ChEMBL document CHEMBL1201862, “PubChem BioAssay data set” (2004).
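Cultured in 96-well plates, cells were exposed to test compound for 48 hours across five concentrations. GI50 marks 50% less growth.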 Activity calls are given as the source filed them. No stated cut-off is given here; in the data, active = GI50 up to about 1.1 µM and inactive = higher.

Experiments:
Assay in all cases: NCI tumour cell line growth inhibition, 48 h
ACHN = system: ACHN
SF-539 = system: SF-539
SW-620 = system: SW-620
U-251 = system: U-251
LOX IMVI = system: LOX IMVI
SK-OV-3 = system: SK-OV-3
CAKI-1 = system: CAKI-1
M14 = system: M14
786-0 = system: 786-0
SNB-75 = system: SNB-75
NCI-H23 = system: NCI-H23
MDA-MB-231 = system: MDA-MB-231
SK-MEL-2 = system: SK-MEL-2
A498 = system: A498
OVCAR-8 = system: OVCAR-8
RXF 393 = system: RXF 393
TK-10 = system: TK-10
HCT-116 = system: HCT-116
Hs-578T = system: Hs-578T
SK-MEL-5 = system: SK-MEL-5

Structure (SMILES) | GI50 (ACHN) | GI50 (SF-539) | GI50 (SW-620) | GI50 (U-251) | GI50 (LOX IMVI) | GI50 (SK-OV-3) | GI50 (CAKI-1) | GI50 (M14) | GI50 (786-0) | GI50 (SNB-75) | GI50 (NCI-H23) | GI50 (MDA-MB-231) | GI50 (SK-MEL-2) | GI50 (A498) | GI50 (OVCAR-8) | GI50 (RXF 393) | GI50 (TK-10) | GI50 (HCT-116) | GI50 (Hs-578T) | GI50 (SK-MEL-5)
N#Cc1c(NC(=O)C(F)(F)F)sc2c3c(=O)c4ccccc4c(=O)c=3oc3ccccc3c12 | 21.1 µM (inactive) | 7.24 µM (inactive) | 25.1 µM (inactive) | 14.7 µM (inactive) | 13 µM (inactive) | 29.4 µM (inactive) | 15.4 µM (inactive) | 21.7 µM (inactive) | 25.6 µM (inactive) | 16.8 µM (inactive) | 9.84 µM (inactive) | 24.3 µM (inactive) | 15 µM (inactive) | 33.3 µM (inactive) | 15.7 µM (inactive) | 10 µM (inactive) | 33 µM (inactive) | 11.9 µM (inactive) | 2.49 µM (inactive) | 11.3 µM (inactive)
O=C(O)CCn1cnc2c(S)ncnc21 | > 100 µM (inactive) | > 100 µM (inactive) | > 100 µM (inactive) | > 100 µM (inactive) | > 100 µM (inactive) | > 100 µM (inactive) | > 100 µM (inactive) | > 100 µM (inactive) | > 100 µM (inactive) | > 100 µM (inactive) | > 100 µM (inactive) | > 100 µM (inactive) | > 100 µM (inactive) | > 100 µM (inactive) | > 100 µM (inactive) | > 100 µM (inactive) | > 100 µM (inactive) | > 100 µM (inactive) | > 100 µM (inactive) | > 100 µM (inactive)
Cc1ccc(C(=O)/C=C2/Nc3ccccc3NC2=O)c(C)c1 | 8.36 µM (inactive) | 5.04 µM (inactive) | 27.2 µM (inactive) | 11.2 µM (inactive) | 22.6 µM (inactive) | 7.05 µM (inactive) | 3.95 µM (inactive) | 49.2 µM (inactive) | 4.19 µM (inactive) | 6.32 µM (inactive) | 16.1 µM (inactive) | 14.3 µM (inactive) | 46.5 µM (inactive) | 0.228 µM (active) | 5.28 µM (inactive) | 7.52 µM (inactive) | 5.58 µM (inactive) | 11.8 µM (inactive) | 16.2 µM (inactive) | 19 µM (inactive)
Cc1ccc(S(=O)(=O)N/N=C/C(=C/c2ccc(Cl)cc2)CC(/C=N/NS(=O)(=O)c2ccc(C)cc2)=C\c2ccc(Cl)cc2)cc1 | 6.04 µM (inactive) | 12.1 µM (inactive) | 4.47 µM (inactive) | 4.78 µM (inactive) | 2.1 µM (inactive) | 44.4 µM (inactive) | 5.37 µM (inactive) | 10.8 µM (inactive) | 2.19 µM (inactive) | 3.96 µM (inactive) | 6.93 µM (inactive) | 10.2 µM (inactive) | 7.76 µM (inactive) | 4.94 µM (inactive) | 2.63 µM (inactive) | 3.56 µM (inactive) | 17.9 µM (inactive) | 4.6 µM (inactive) | 3.68 µM (inactive) | 4.03 µM (inactive)
NC(=S)N/N=C\c1ccc(OCc2cccc(COc3ccc(/C=N/NC(N)=S)cc3)n2)cc1 | 9.53 µM (inactive) | > 100 µM (inactive) | > 100 µM (inactive) | 45.4 µM (inactive) | > 100 µM (inactive) | > 100 µM (inactive) | 17 µM (inactive) | 43.4 µM (inactive) | > 100 µM (inactive) | > 100 µM (inactive) | 69.3 µM (inactive) | 5.25 µM (inactive) | 12.5 µM (inactive) | > 100 µM (inactive) | > 100 µM (inactive) | 1.63 µM (inactive) | 76.7 µM (inactive) | 12 µM (inactive) | > 100 µM (inactive) | 5.06 µM (inactive)
CCOC(=O)c1cn2c(n1)sc1cc(Cl)ccc12 | 14.5 µM (inactive) | 5.78 µM (inactive) | 4.75 µM (inactive) | 14.1 µM (inactive) | 7.78 µM (inactive) | 52 µM (inactive) | 19.2 µM (inactive) | 18.3 µM (inactive) | 6.58 µM (inactive) | 31 µM (inactive) | 62.2 µM (inactive) | > 100 µM (inactive) | > 100 µM (inactive) | 33.6 µM (inactive) | 21.9 µM (inactive) | 45 µM (inactive) | > 100 µM (inactive) | 3.37 µM (inactive) | 24.7 µM (inactive) | 7.76 µM (inactive)
COC(=O)/C=C\c1ccc2c(c1)CC1(C2)Cc2ccc(/C=C/C(=O)OC)cc2C1 (stereo not given) | > 31.6 µM (inactive) | 30 µM (inactive) | > 100 µM (inactive) | 20.7 µM (inactive) | > 31.6 µM (inactive) | > 31.6 µM (inactive) | 0.918 µM (active) | > 31.6 µM (inactive) | 19.6 µM (inactive) | 1.09 µM (active) | > 31.6 µM (inactive) | 17.2 µM (inactive) | > 10 µM (inactive) | > 10 µM (inactive) | 30.8 µM (inactive) | > 31.6 µM (inactive) | > 31.6 µM (inactive) | 24.4 µM (inactive) | > 31.6 µM (inactive) | > 31.6 µM (inactive)
C#CC(O)Cc1ccc(OC)c2occc12 (stereo not given) | > 100 µM (inactive) | > 100 µM (inactive) | > 100 µM (inactive) | > 100 µM (inactive) | > 100 µM (inactive) | > 100 µM (inactive) | > 100 µM (inactive) | > 100 µM (inactive) | > 100 µM (inactive) | 52.1 µM (inactive) | > 100 µM (inactive) | > 100 µM (inactive) | > 100 µM (inactive) | > 100 µM (inactive) | > 100 µM (inactive) | > 100 µM (inactive) | > 100 µM (inactive) | > 100 µM (inactive) | > 100 µM (inactive) | > 100 µM (inactive)
